Structures are written as SMILES.

The target in the test is C-X-C chemokine receptor type 4 (Homo sapiens, UniProt P61073). Put plainly: Displacement of [125I]-CXCL12 from HA-tagged human recombinant CXCR4 expressed in HEK293 cells incubated for 1 hr by gamma-radiation counting analysis. Type of test: cell-based. (In general: Loss of bound radioactivity is the signal in a displacement assay; it reports binding, not function.)
Chain of C-X-C chemokine receptor type 4 (P61073 whole entry): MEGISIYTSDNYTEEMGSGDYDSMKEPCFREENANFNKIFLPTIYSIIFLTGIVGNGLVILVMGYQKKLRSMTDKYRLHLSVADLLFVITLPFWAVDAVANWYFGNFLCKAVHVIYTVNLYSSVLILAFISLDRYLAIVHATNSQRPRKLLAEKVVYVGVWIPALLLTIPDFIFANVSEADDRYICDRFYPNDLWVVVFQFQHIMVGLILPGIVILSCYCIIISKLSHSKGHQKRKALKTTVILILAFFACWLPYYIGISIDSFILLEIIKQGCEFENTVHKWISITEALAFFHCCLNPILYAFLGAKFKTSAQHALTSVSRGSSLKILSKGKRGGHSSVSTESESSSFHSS

On to `CC(C)C[C@H](NC(=O)[C@H](CO)NC(=O)[C@@H](NC(=O)[C@H]1CCCN1C(=O)[C@@H](N)CCCCN)C(C)C)C(=O)N[C@@H](CO)C(=O)N[C@@H](Cc1ccc(O)cc1)C(=O)N[C@@H](CCCNC(=N)N)C(=O)N[C@@H](CO)C(=O)N[C@@H](C)C(=O)NCCCC[C@H](NC(=O)[C@@H]1CSSC[C@H](NC(=O)[C@H](Cc2ccc3ccccc3c2)NC(=O)[C@H](CCCNC(=N)N)NC(=O)[C@@H](N)CCCNC(=N)N)C(=O)N[C@@H](Cc2ccc(O)cc2)C(=O)N[C@@H](CCCNC(=N)N)C(=O)N[C@@H](CCCCN)C(=O)N[C@H](CCCCN)C(=O)N2CCC[C@H]2C(=O)N[C@@H](Cc2ccc(O)cc2)C(=O)N[C@@H](CCCNC(=N)N)C(=O)N[C@@H](CCCNC(=N)N)C(=O)N1)C(=O)O`, for which, under “hek293”, the IC50 came to 151 nM.

Take `CC(C)C[C@H](NC(=O)[C@H](CO)NC(=O)[C@@H](NC(=O)[C@H](C)NC(=O)[C@@H](N)CCCCN)C(C)C)C(=O)N[C@@H](CO)C(=O)N[C@@H](Cc1ccc(O)cc1)C(=O)N[C@@H](CCCNC(=N)N)C(=O)N[C@@H](CO)C(=O)N[C@@H](C)C(=O)NCCCC[C@H](NC(=O)[C@@H]1CSSC[C@H](NC(=O)[C@H](Cc2ccc3ccccc3c2)NC(=O)[C@H](CCCNC(=N)N)NC(=O)[C@@H](N)CCCNC(=N)N)C(=O)N[C@@H](Cc2ccc(O)cc2)C(=O)N[C@@H](CCCNC(=N)N)C(=O)N[C@@H](CCCCN)C(=O)N[C@H](CCCCN)C(=O)N2CCC[C@H]2C(=O)N[C@@H](Cc2ccc(O)cc2)C(=O)N[C@@H](CCCNC(=N)N)C(=O)N[C@@H](CCCNC(=N)N)C(=O)N1)C(=O)O`: the IC50 turned out to be 353 nM. The same measure, in the same setting: in the case of `CC(C)C[C@H](NC(=O)[C@H](CO)NC(=O)[C@@H](NC(=O)[C@@H]1CCCN1C(=O)[C@@H](N)CCCCN)C(C)C)C(=O)N[C@@H](CO)C(=O)N[C@@H](C)C(=O)N[C@@H](CCCNC(=N)N)C(=O)N[C@@H](CO)C(=O)N[C@@H](C)C(=O)NCCCC[C@H](NC(=O)[C@@H]1CSSC[C@H](NC(=O)[C@H](Cc2ccc3ccccc3c2)NC(=O)[C@H](CCCNC(=N)N)NC(=O)[C@@H](N)CCCNC(=N)N)C(=O)N[C@@H](Cc2ccc(O)cc2)C(=O)N[C@@H](CCCNC(=N)N)C(=O)N[C@@H](CCCCN)C(=O)N[C@H](CCCCN)C(=O)N2CCC[C@H]2C(=O)N[C@@H](Cc2ccc(O)cc2)C(=O)N[C@@H](CCCNC(=N)N)C(=O)N[C@@H](CCCNC(=N)N)C(=O)N1)C(=O)O` it was 230 nM; in that of `CC(C)[C@H](NC(=O)[C@@H]1CCCN1C(=O)[C@@H](N)CCCCN)C(=O)N[C@@H](CO)C(=O)N[C@@H](C)C(=O)N[C@@H](CO)C(=O)N[C@@H](Cc1ccc(O)cc1)C(=O)N[C@@H](CCCNC(=N)N)C(=O)N[C@@H](CO)C(=O)N[C@@H](C)C(=O)NCCCC[C@H](NC(=O)[C@@H]1CSSC[C@H](NC(=O)[C@H](Cc2ccc3ccccc3c2)NC(=O)[C@H](CCCNC(=N)N)NC(=O)[C@@H](N)CCCNC(=N)N)C(=O)N[C@@H](Cc2ccc(O)cc2)C(=O)N[C@@H](CCCNC(=N)N)C(=O)N[C@@H](CCCCN)C(=O)N[C@H](CCCCN)C(=O)N2CCC[C@H]2C(=O)N[C@@H](Cc2ccc(O)cc2)C(=O)N[C@@H](CCCNC(=N)N)C(=O)N[C@@H](CCCNC(=N)N)C(=O)N1)C(=O)O`, 171 nM; in that of `CC(C)C[C@H](NC(=O)[C@H](CO)NC(=O)[C@@H](NC(=O)[C@@H]1CCCN1)C(C)C)C(=O)N[C@@H](CO)C(=O)N[C@@H](Cc1ccc(O)cc1)C(=O)N[C@@H](CCCNC(=N)N)C(=O)N[C@@H](CO)C(=O)N[C@@H](C)C(=O)NCCCC[C@H](NC(=O)[C@@H]1CSSC[C@H](NC(=O)[C@H](Cc2ccc3ccccc3c2)NC(=O)[C@H](CCCNC(=N)N)NC(=O)[C@@H](N)CCCNC(=N)N)C(=O)N[C@@H](Cc2ccc(O)cc2)C(=O)N[C@@H](CCCNC(=N)N)C(=O)N[C@@H](CCCCN)C(=O)N[C@H](CCCCN)C(=O)N2CCC[C@H]2C(=O)N[C@@H](Cc2ccc(O)cc2)C(=O)N[C@@H](CCCNC(=N)N)C(=O)N[C@@H](CCCNC(=N)N)C(=O)N1)C(=O)O`, 548 nM.

As to `CCCC[C@H](N)C(=O)N1CCC[C@H]1C(=O)N[C@H](C(=O)N[C@@H](CO)C(=O)N[C@@H](CC(C)C)C(=O)N[C@@H](CO)C(=O)N[C@@H](Cc1ccc(O)cc1)C(=O)N[C@@H](CCCNC(=N)N)C(=O)N[C@@H](CO)C(=O)N[C@@H](C)C(=O)NCCCC[C@H](NC(=O)[C@@H]1CSSC[C@H](NC(=O)[C@H](Cc2ccc3ccccc3c2)NC(=O)[C@H](CCCNC(=N)N)NC(=O)[C@@H](N)CCCNC(=N)N)C(=O)N[C@@H](Cc2ccc(O)cc2)C(=O)N[C@@H](CCCNC(=N)N)C(=O)N[C@@H](CCCCN)C(=O)N[C@H](CCCCN)C(=O)N2CCC[C@H]2C(=O)N[C@@H](Cc2ccc(O)cc2)C(=O)NC(CCCNC(=N)N)C(=O)N[C@@H](CCCNC(=N)N)C(=O)N1)C(=O)O)C(C)C` (some centres not stated), the IC50 came to 267 nM. Turning to `CC(C)C[C@H](NC(=O)[C@H](CO)NC(=O)[C@H](Cc1ccccc1)N(C)C(=O)[C@@H]1CCCN1C(=O)[C@@H](N)CCCCN)C(=O)N[C@@H](CO)C(=O)N[C@@H](Cc1ccc(O)cc1)C(=O)N[C@@H](CCCNC(=N)N)C(=O)N[C@@H](CO)C(=O)N[C@@H](C)C(=O)NCCCC[C@H](NC(=O)[C@@H]1CSSC[C@H](NC(=O)[C@H](Cc2ccc3ccccc3c2)NC(=O)[C@H](CCCNC(=N)N)NC(=O)[C@@H](N)CCCNC(=N)N)C(=O)N[C@@H](Cc2ccc(O)cc2)C(=O)N[C@@H](CCCNC(=N)N)C(=O)N[C@@H](CCCCN)C(=O)N[C@H](CCCCN)C(=O)N2CCC[C@H]2C(=O)N[C@@H](Cc2ccc(O)cc2)C(=O)N[C@@H](CCCNC(=N)N)C(=O)N[C@@H](CCCNC(=N)N)C(=O)N1)C(=O)O`, the IC50 was 678 nM. Same read-out and setting: then `CC(C)C[C@H](NC(=O)[C@H](CO)NC(=O)[C@@H](N)C(C)C)C(=O)N[C@@H](CO)C(=O)N[C@@H](Cc1ccc(O)cc1)C(=O)N[C@@H](CCCNC(=N)N)C(=O)N[C@@H](CO)C(=O)N[C@@H](C)C(=O)NCCCC[C@H](NC(=O)[C@@H]1CSSC[C@H](NC(=O)[C@H](Cc2ccc3ccccc3c2)NC(=O)[C@H](CCCNC(=N)N)NC(=O)[C@@H](N)CCCNC(=N)N)C(=O)N[C@@H](Cc2ccc(O)cc2)C(=O)N[C@@H](CCCNC(=N)N)C(=O)N[C@@H](CCCCN)C(=O)N[C@H](CCCCN)C(=O)N2CCC[C@H]2C(=O)N[C@@H](Cc2ccc(O)cc2)C(=O)N[C@@H](CCCNC(=N)N)C(=O)N[C@@H](CCCNC(=N)N)C(=O)N1)C(=O)O`, with 95 nM; and `CC(C)C[C@H](NC(=O)[C@H](CO)NC(=O)[C@@H](NC(=O)[C@@H]1Cc2ccccc2CN1C(=O)[C@@H](N)CCCCN)C(C)C)C(=O)N[C@@H](CO)C(=O)N[C@@H](Cc1ccc(O)cc1)C(=O)N[C@@H](CCCNC(=N)N)C(=O)N[C@@H](CO)C(=O)N[C@@H](C)C(=O)NCCCC[C@H](NC(=O)[C@@H]1CSSC[C@H](NC(=O)[C@H](Cc2ccc3ccccc3c2)NC(=O)[C@H](CCCNC(=N)N)NC(=O)[C@@H](N)CCCNC(=N)N)C(=O)N[C@@H](Cc2ccc(O)cc2)C(=O)N[C@@H](CCCNC(=N)N)C(=O)N[C@@H](CCCCN)C(=O)N[C@H](CCCCN)C(=O)N2CCC[C@H]2C(=O)N[C@@H](Cc2ccc(O)cc2)C(=O)N[C@@H](CCCNC(=N)N)C(=O)N[C@@H](CCCNC(=N)N)C(=O)N1)C(=O)O`, with 222 nM. As to `CC(C)C[C@H](NC(=O)[C@H](CO)NC(=O)[C@@H](NC(=O)C1(NC(=O)[C@@H](N)CCCCN)Cc2ccccc2C1)C(C)C)C(=O)N[C@@H](CO)C(=O)N[C@@H](Cc1ccc(O)cc1)C(=O)N[C@@H](CCCNC(=N)N)C(=O)N[C@@H](CO)C(=O)N[C@@H](C)C(=O)NCCCC[C@H](NC(=O)[C@@H]1CSSC[C@H](NC(=O)[C@H](Cc2ccc3ccccc3c2)NC(=O)[C@H](CCCNC(=N)N)NC(=O)[C@@H](N)CCCNC(=N)N)C(=O)N[C@@H](Cc2ccc(O)cc2)C(=O)N[C@@H](CCCNC(=N)N)C(=O)N[C@@H](CCCCN)C(=O)N[C@H](CCCCN)C(=O)N2CCC[C@H]2C(=O)N[C@@H](Cc2ccc(O)cc2)C(=O)N[C@@H](CCCNC(=N)N)C(=O)N[C@@H](CCCNC(=N)N)C(=O)N1)C(=O)O`, the IC50 was 137 nM. `CC(C)C[C@H](NC(=O)[C@H](CO)NC(=O)[C@H](C(C)C)N(C)C(=O)[C@@H]1CCCN1C(=O)[C@@H](N)CCCCN)C(=O)N[C@@H](CO)C(=O)N[C@@H](Cc1ccc(O)cc1)C(=O)N[C@@H](CCCNC(=N)N)C(=O)N[C@@H](CO)C(=O)N[C@@H](C)C(=O)NCCCC[C@H](NC(=O)[C@@H]1CSSC[C@H](NC(=O)[C@H](Cc2ccc3ccccc3c2)NC(=O)[C@H](CCCNC(=N)N)NC(=O)[C@@H](N)CCCNC(=N)N)C(=O)N[C@@H](Cc2ccc(O)cc2)C(=O)N[C@@H](CCCNC(=N)N)C(=O)N[C@@H](CCCCN)C(=O)N[C@H](CCCCN)C(=O)N2CCC[C@H]2C(=O)N[C@@H](Cc2ccc(O)cc2)C(=O)N[C@@H](CCCNC(=N)N)C(=O)N[C@@H](CCCNC(=N)N)C(=O)N1)C(=O)O`: the 50% inhibitory concentration (IC50) was 127 nM. Still for that read-out and setting: in the case of `CC(C)C[C@H](NC(=O)[C@H](CO)NC(=O)[C@@H](NC(=O)[C@@H]1CCCN1C(=O)[C@H](C)N)C(C)C)C(=O)N[C@@H](CO)C(=O)N[C@@H](Cc1ccc(O)cc1)C(=O)N[C@@H](CCCNC(=N)N)C(=O)N[C@@H](CO)C(=O)N[C@@H](C)C(=O)NCCCC[C@H](NC(=O)[C@@H]1CSSC[C@H](NC(=O)[C@H](Cc2ccc3ccccc3c2)NC(=O)[C@H](CCCNC(=N)N)NC(=O)[C@@H](N)CCCNC(=N)N)C(=O)N[C@@H](Cc2ccc(O)cc2)C(=O)N[C@@H](CCCNC(=N)N)C(=O)N[C@@H](CCCCN)C(=O)N[C@H](CCCCN)C(=O)N2CCC[C@H]2C(=O)N[C@@H](Cc2ccc(O)cc2)C(=O)N[C@@H](CCCNC(=N)N)C(=O)N[C@@H](CCCNC(=N)N)C(=O)N1)C(=O)O` it was 282 nM.

For orientation: IC50 means the midpoint of a concentration-inhibition curve.

For the origin of these results see ChEMBL document CHEMBL3860039, “Structure-Activity Relationship and Signaling of New Chimeric CXCR4 Agonists” (J Med Chem, 2016).
